Peptide text beside a SMILES is read from it. * marks the point of attachment. X1 = CCCCCCCCCCCCCCCC(=O)OCC(C*)OC(=O)CCCCCCCCCCCCCCC
Details: mouse, in vivo

Q: With CCCCCCCCCCCCCCCC(=O)OCC(CSC[C@H](N)C(=O)N[C@@H](CO)C(=O)N[C@@H](CO)C(=O)NCCOCCOCCOCCOCCOCCOCCOCCOCCOCCOCCOCCOCCC(=O)NCC(N)=O)OC(=O)CCCCCCCCCCCCCCC (some centres unmarked) [INNA-003, PEG-S—S-Pam2Cys] as the compound, how does the highest weight loss read?
A: 4.67%±2.12%

Q: Which “weight loss relative to baseline” value does the source give for CCCCCCCCCCCCCCCC(=O)OCC(CSC[C@H](N)C(=O)N[C@@H](CO)C(=O)N[C@@H](CCCCN)C(=O)N[C@@H](CCCCN)C(=O)N[C@@H](CCCCN)C(=O)N[C@@H](CCCCN)C(=O)O)OC(=O)CCCCCCCCCCCCCCC (some centres unmarked) [Pam2Cys-SK4, dipalmitoyl-S-glyceryl cysteine-serine-(lysine)4, reference compound] (H-C(X1)SKKKK-OH) here?
A: little or no weight loss

Source: patent US20210177795A1 (priority 2017, published 2021)
